{"source": "PubChem BioAssay AID328", "about": "(DTP/NCI, 2004)", "test_system": "BDF1 mice, P388 leukemia ip, median survival T/C", "test": "NCI In Vivo Anticancer Drug Screen. Data for tumor model P388 Leukemia (intraperitoneal) in B6D2F1 (BDF1) mice", "conditions": "endpoint: median survival time, higher = longer survival", "in_short": "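Survival ratio, drug arm over vehicle arm, in mice with a transplanted tumour.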", "key": {"[1]": {"conditions": "dose: 50.0 mg/kg/injection, schedule: Q04DX003 (ip), vehicle: saline with Tween-80"}, "[2]": {"conditions": "dose: 100.0 mg/kg/injection, schedule: Q04DX003 (ip), vehicle: saline with Tween-80"}, "[3]": {"conditions": "dose: 12.5 mg/kg/injection, schedule: Q01DX009 (ip), vehicle: saline"}, "[4]": {"conditions": "dose: 50.0 mg/kg/injection, schedule: Q01DX009 (ip), vehicle: saline with Tween-80"}, "[5]": {"conditions": "dose: 100.0 mg/kg/injection, schedule: Q01DX009 (ip), vehicle: saline with Tween-80"}, "[6]": {"conditions": "dose: 200.0 mg/kg/injection, schedule: Q01DX009 (ip), vehicle: saline with Tween-80"}, "[7]": {"conditions": "dose: 100.0 mg/kg/injection, schedule: Q04DX003 (ip), vehicle: saline"}, "[8]": {"conditions": "dose: 25.0 mg/kg/injection, schedule: Q01DX009 (ip), vehicle: saline with Tween-80"}, "[9]": {"conditions": "dose: 200.0 mg/kg/injection, schedule: Q04DX003 (ip), vehicle: saline with Tween-80"}, "[10]": {"conditions": "dose: 400.0 mg/kg/injection, schedule: Q04DX003 (ip), vehicle: saline with Tween-80"}}, "note": "Where “and” joins values, the source holds several entries; their conditions need not be identical. Identical values can stand only once. Toxic doses and inconclusive results are not listed.", "data": [{"smiles": "NC(=O)c1nnc2cccc(Cl)n12", "values": [{"measurement": "T/C", "setting": "dose: 100.0 mg/kg/injection, schedule: Q01DX001 (ip), vehicle: saline with Tween-80", "result": "112 % of control"}, {"measurement": "T/C", "setting": "dose: 200.0 mg/kg/injection, schedule: Q01DX001 (ip), vehicle: saline with Tween-80", "result": "103 % of control"}, {"measurement": "T/C", "setting": "dose: 400.0 mg/kg/injection, schedule: Q01DX001 (ip), vehicle: saline with Tween-80", "result": "96 % of control"}]}, {"smiles": "CCOC(=O)CC/C(=C/c1ccccc1)[N+](=O)[O-]", "values": [{"measurement": "T/C", "setting": "dose: 25.0 mg/kg/injection, schedule: Q04DX003 (ip), vehicle: saline with Tween-80", "result": "110 % of control"}, {"measurement": "T/C", "setting": "[1]", "result": "106 % of control"}, {"measurement": "T/C", "setting": "[2]", "result": "119 % of control"}]}, {"smiles": "ClCCCN1CCCCC1CCl", "note": "(stereo unspecified)", "values": [{"measurement": "T/C", "setting": "dose: 3.12 mg/kg/injection, schedule: Q04DX003 (ip), vehicle: saline", "result": "102 % of control"}, {"measurement": "T/C", "setting": "dose: 6.25 mg/kg/injection, schedule: Q01DX009 (ip), vehicle: saline", "result": "242 % of control"}, {"measurement": "T/C", "setting": "[3]", "result": "254 % of control and 96 % of control"}, {"measurement": "T/C", "setting": "dose: 12.5 mg/kg/injection, schedule: Q04DX003 (ip), vehicle: saline", "result": "151 % of control"}, {"measurement": "T/C", "setting": "dose: 25.0 mg/kg/injection, schedule: Q04DX003 (ip), vehicle: saline", "result": "236 % of control and 182 % of control"}, {"measurement": "T/C", "setting": "dose: 40.0 mg/kg/injection, schedule: Q04DX003 (ip), vehicle: saline", "result": "90 % of control"}]}, {"smiles": "CC1(C)OC(CI)C(COS(C)(=O)=O)O1", "note": "(stereo unspecified)", "values": [{"measurement": "T/C", "setting": "[4]", "result": "100 % of control"}, {"measurement": "T/C", "setting": "[5]", "result": "91 % of control"}, {"measurement": "T/C", "setting": "[6]", "result": "112 % of control"}]}, {"smiles": "Nc1noc(N)n1", "values": [{"measurement": "T/C", "setting": "[7]", "result": "109 % of control"}, {"measurement": "T/C", "setting": "dose: 200.0 mg/kg/injection, schedule: Q04DX003 (ip), vehicle: saline", "result": "100 % of control"}, {"measurement": "T/C", "setting": "dose: 400.0 mg/kg/injection, schedule: Q04DX003 (ip), vehicle: saline", "result": "104 % of control"}]}, {"smiles": "CC1=NC2=NC(CCCC(=O)OCc3ccccc3)=NC3=CC=CC(=N1)N32", "values": [{"measurement": "T/C", "setting": "[8]", "result": "108 % of control"}, {"measurement": "T/C", "setting": "[4]", "result": "110 % of control"}, {"measurement": "T/C", "setting": "[5]", "result": "101 % of control"}]}, {"smiles": "NC(=Nc1ccc(Cl)cc1)/N=C(/N)N1CCN(/C(N)=N/C(N)=Nc2ccc(Cl)cc2)CC1", "values": [{"measurement": "T/C", "setting": "[3]", "result": "120 % of control"}, {"measurement": "T/C", "setting": "dose: 16.5 mg/kg/injection, schedule: Q01DX009 (ip), vehicle: saline", "result": "116 % of control"}, {"measurement": "T/C", "setting": "dose: 25.0 mg/kg/injection, schedule: Q01DX001 (ip), vehicle: saline", "result": "104 % of control"}, {"measurement": "T/C", "setting": "dose: 37.5 mg/kg/injection, schedule: Q01DX009 (ip), vehicle: saline", "result": "150 % of control"}, {"measurement": "T/C", "setting": "dose: 50.0 mg/kg/injection, schedule: Q01DX001 (ip), vehicle: saline", "result": "113 % of control"}, {"measurement": "T/C", "setting": "dose: 50.0 mg/kg/injection, schedule: Q04DX003 (ip), vehicle: saline", "result": "100 % of control"}, {"measurement": "T/C", "setting": "dose: 100.0 mg/kg/injection, schedule: Q01DX001 (ip), vehicle: saline", "result": "109 % of control"}, {"measurement": "T/C", "setting": "[7]", "result": "115 % of control"}, {"measurement": "T/C", "setting": "dose: 150.0 mg/kg/injection, schedule: Q01DX001 (ip), vehicle: Klucel (hydroxypropylcellulose) (HPC)", "result": "116 % of control"}]}, {"smiles": "CC(C)n1cnc2c(=S)nc[nH]c21", "values": [{"measurement": "T/C", "setting": "[5]", "result": "91 % of control"}, {"measurement": "T/C", "setting": "[2]", "result": "100 % of control"}, {"measurement": "T/C", "setting": "[9]", "result": "104 % of control"}, {"measurement": "T/C", "setting": "[10]", "result": "113 % of control"}]}, {"smiles": "COC[C@H]1OC(=O)c2coc3c2[C@@]1(C)C1=C(C3=O)[C@@H]2CCC(=O)[C@@]2(C)C[C@H]1OC(C)=O", "values": [{"measurement": "T/C", "setting": "dose: 0.16 mg/kg/injection, schedule: Q01DX009 (ip), vehicle: saline", "result": "108 % of control"}, {"measurement": "T/C", "setting": "dose: 0.31 mg/kg/injection, schedule: Q01DX009 (ip), vehicle: saline", "result": "115 % of control"}, {"measurement": "T/C", "setting": "dose: 0.63 mg/kg/injection, schedule: Q01DX009 (ip), vehicle: saline", "result": "116 % of control"}, {"measurement": "T/C", "setting": "dose: 2.5 mg/kg/injection, schedule: Q01DX009 (ip), vehicle: saline", "result": "117 % of control"}]}, {"smiles": "CCOC(=O)CCCN(c1sc(C)c(C)c1C(=O)OCC)S(=O)(=O)c1ccc(C)cc1", "values": [{"measurement": "T/C", "setting": "[8]", "result": "104 % of control"}, {"measurement": "T/C", "setting": "[4]", "result": "109 % of control"}, {"measurement": "T/C", "setting": "[1]", "result": "91 % of control"}, {"measurement": "T/C", "setting": "[5]", "result": "104 % of control"}, {"measurement": "T/C", "setting": "[2]", "result": "87 % of control"}, {"measurement": "T/C", "setting": "[6]", "result": "95 % of control"}, {"measurement": "T/C", "setting": "[9]", "result": "95 % of control"}, {"measurement": "T/C", "setting": "[10]", "result": "87 % of control"}]}]}
